Read-outs that look alike come from different tables or passages of the source.
Assays:
[1] = target: T1, human 5-HT2A receptor (Homo sapiens, UniProt P28223); experiment: Competition binding to the human 5-HT2A receptor ([3H]ketanserin, CHO-5-HT2A membranes); settings: for Selectivity 5-HT2A/2C (binding): from Ki values, Table 1; for Ki: human receptor, [3H]ketanserin displacement, no unit in the table, nM, read-out: 5-HT2A Ki (in parentheses) (converted)
T1 construct: expressed in transfected cells; host or cells: CHO (CHO-5-HT2A cell line)
T1 sequence (P28223 whole entry): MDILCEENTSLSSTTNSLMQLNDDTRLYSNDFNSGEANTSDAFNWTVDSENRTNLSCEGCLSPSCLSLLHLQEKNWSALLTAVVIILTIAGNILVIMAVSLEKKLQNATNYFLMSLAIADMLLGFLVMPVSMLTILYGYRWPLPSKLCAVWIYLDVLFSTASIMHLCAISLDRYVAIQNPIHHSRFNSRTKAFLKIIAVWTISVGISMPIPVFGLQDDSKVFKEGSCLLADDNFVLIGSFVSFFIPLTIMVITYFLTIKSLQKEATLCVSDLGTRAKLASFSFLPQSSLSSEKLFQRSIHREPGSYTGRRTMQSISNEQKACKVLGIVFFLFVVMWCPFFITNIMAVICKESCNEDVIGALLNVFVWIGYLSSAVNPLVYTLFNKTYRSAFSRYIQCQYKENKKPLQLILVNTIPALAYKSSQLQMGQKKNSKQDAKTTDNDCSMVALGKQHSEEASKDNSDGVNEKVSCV

[2] = target: T2, human 5-HT2C receptor (Homo sapiens, UniProt P28335); experiment: Competition binding to the human 5-HT2C receptor ([3H]mesulergine, HeLa-5-HT2C membranes); settings: for Selectivity 5-HT2C/2A (binding, in parentheses): from Ki values, Table 1; for Ki: human receptor, [3H]mesulergine displacement, no unit in the table, nM, read-out: 5-HT2C Ki (in parentheses) (converted)
T2 construct: expressed in transfected cells; host or cells: HeLa (HeLa-5-HT2C cell line)
T2 sequence (P28335 33-458): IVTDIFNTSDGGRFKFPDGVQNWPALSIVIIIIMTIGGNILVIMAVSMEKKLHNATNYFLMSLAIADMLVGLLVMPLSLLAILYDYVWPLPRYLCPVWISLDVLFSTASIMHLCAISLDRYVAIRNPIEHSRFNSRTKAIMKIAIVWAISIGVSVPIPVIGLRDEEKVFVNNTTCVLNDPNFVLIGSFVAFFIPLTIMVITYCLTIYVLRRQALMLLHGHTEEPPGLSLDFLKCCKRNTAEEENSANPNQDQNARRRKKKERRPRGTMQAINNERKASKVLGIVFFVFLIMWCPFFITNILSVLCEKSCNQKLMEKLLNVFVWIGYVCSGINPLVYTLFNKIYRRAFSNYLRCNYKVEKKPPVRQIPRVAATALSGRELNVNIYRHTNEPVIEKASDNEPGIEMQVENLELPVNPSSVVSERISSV

[3] = target: T1, human 5-HT2A receptor; experiment: Ca2+ mobilization in CHO h5-HT2A cells; assay type: cell-based; settings: for times less potent than its 5-methoxytryptamine analog, h5-HT2A functional assay: 3 vs 38, 5 vs 39; for Selectivity 5-HT2A/2C (functional): from EC50 values, Table 2; for Emax: relative efficacy, % of response to 5-HT
[4] = target: T2, human 5-HT2C receptor; experiment: Ca2+ mobilization in HeLa h5-HT2C cells; assay type: cell-based; settings: for EC50: no unit in the table, nM; for Emax: HeLa, read-out: 5-HT2C % Emax; for Selectivity 5-HT2C/2A (functional, in parentheses): from EC50 values, Table 2
[5] = target: human 5-HT2B receptor (Homo sapiens, UniProt P41595); experiment: Competition binding to the human 5-HT2B receptor ([3H]LSD, CHO-5-HT2B membranes)
human 5-HT2B receptor, sequence (P41595 whole entry): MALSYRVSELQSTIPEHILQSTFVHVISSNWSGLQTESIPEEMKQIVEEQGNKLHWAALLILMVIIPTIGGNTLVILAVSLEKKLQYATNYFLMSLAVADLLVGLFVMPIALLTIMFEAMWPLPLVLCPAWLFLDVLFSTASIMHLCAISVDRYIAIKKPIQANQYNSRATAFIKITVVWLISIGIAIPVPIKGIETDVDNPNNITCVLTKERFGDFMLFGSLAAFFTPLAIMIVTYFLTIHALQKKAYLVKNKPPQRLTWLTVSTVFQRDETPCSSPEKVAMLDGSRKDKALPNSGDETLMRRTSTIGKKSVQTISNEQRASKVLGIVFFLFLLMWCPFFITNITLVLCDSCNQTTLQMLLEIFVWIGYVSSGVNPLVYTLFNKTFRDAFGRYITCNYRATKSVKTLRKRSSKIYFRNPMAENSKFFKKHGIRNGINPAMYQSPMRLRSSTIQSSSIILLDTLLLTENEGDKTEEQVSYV

[6] = Ca2+ mobilization, pEC50 ± SEM, read-out: 5-HT2A pEC50 (converted)
[7] = Ca2+ mobilization, no unit in the table, nM, read-out: 5-HT2A EC50 (in parentheses) (converted)
[8] = Ca2+ mobilization, read-out: 5-HT2C EC50 (in parentheses) (converted)

Row | Compound | Selectivity 5-HT2A/2C (binding) [1] | Ki [1] [nM] | Selectivity 5-HT2C/2A (binding, in parentheses) [2] | Ki [2] [nM] | times less potent than its 5-methoxytryptamine analog, h5-HT2A functional assay [3] | EC50 [3, 6] [nM] | EC50 [3, 7] [nM] | Selectivity 5-HT2A/2C (functional) [3] | Emax [3] [%] | EC50 [4, 8] [nM] | Emax [4] [%] | Selectivity 5-HT2C/2A (functional, in parentheses) [4] | Ki [5] [nM] | inhibition at 10 µM ([1]; 10 μM, values marked *) [%] | functional activity at h5-HT2A receptor (in words) ([3]; Ca2+ mobilization) | 5-HT2A pEC50 ([3]; Ca2+ mobilization, pEC50 ± SEM) | EC50 ([4]; 5-HT2C EC50 (in parentheses), Ca2+ mobilization) [nM] | times less potent than lorcaserin ([4]; 5-HT2C functional potency) | functional activity at h5-HT2C receptor (in words) ([4]; Ca2+ mobilization)
1 | COc1ccccc1CNCCc1c[nH]c2ccccc12 [Compound 3, N-(2-Methoxybenzyl)-[2-(1H-indol-3-yl)ethyl]amine] | 2.56 | 89.1 | 0.39 | 224 | several hundred times less potent | 1550 | 1550 | 0.023 | 63 ± 1.95 | 35.5 | 94.2 ± 3.75 | 43.7 | 46.8 | – | – | – | – | – | –
2 | Cc1ccccc1CNCCc1c[nH]c2ccccc12 [Compound 4, N-(2-Methylbenzyl)-[2-(1H-indol-3-yl)ethyl]amine] | – | – | – | 661 | – | – | 2000 | 0.069 | 44.4 ± 2.79 | 138 | 107 ± 2.9 | 14.5 | 339 | 48 ± 1 | – | – | – | – | –
3 | Clc1ccccc1CNCCc1c[nH]c2ccccc12 [Compound 5, N-(2-Chlorobenzyl)-[2-(1H-indol-3-yl)ethyl]amine] | 2.04 | 12 | 0.49 | 24.6 | ~40 times | – | 468 | 0.42 | 25.5 ± 1.16 | 195 | 87.1 ± 4.96 | 2.40 | 23.4 | – | – | – | – | – | –
4 | Brc1ccccc1CNCCc1c[nH]c2ccccc12 [Compound 6, N-(2-Bromobenzyl)-[2-(1H-indol-3-yl)ethyl]amine] | 1.74 | 195 | 0.57 | 339 | – | – | 2240 | 0.10 | 29.3 ± 5.93 | 234 | 109 ± 5.2 | 9.55 | 74.1 | – | – | – | – | – | –
5 | Oc1cccc(CNCCc2c[nH]c3ccccc23)c1 [Compound 7, N-(3-Hydroxybenzyl)-[2-(1H-indol-3-yl)ethyl]amine] | 0.36 | 75.9 | 2.8 | 25.7 | – | – | 56.2 | 0.12 | 52.8 ± 4.63 | 6.76 | 96.3 ± 4.02 | 8.32 | 37.1 | – | – | – | – | – | –
6 | Cc1cccc(CNCCc2c[nH]c3ccccc23)c1 [Compound 8, N-(3-Methylbenzyl)-[2-(1H-indol-3-yl)ethyl]amine] | 5.10 | 14.4 | 0.20 | 74.1 | – | – | 61.7 | 0.48 | 33 ± 2.11 | 29.5 | 82.6 ± 2.11 | 2.09 | 17 | – | – | – | – | – | –
7 | Fc1cccc(CNCCc2c[nH]c3ccccc23)c1 [Compound 9, N-(3-Fluorobenzyl)-[2-(1H-indol-3-yl)ethyl]amine] | 0.84 | 257 | 1.19 | 214 | – | – | 389 | 0.29 | 33.8 ± 4.01 | 112 | 112 ± 4.84 | 3.47 | 126 | – | – | – | – | – | –
8 | Clc1cccc(CNCCc2c[nH]c3ccccc23)c1 [Compound 10, N-(3-Chlorobenzyl)-[2-(1H-indol-3-yl)ethyl]amine] | 2.17 | 44.7 | 0.46 | 97.7 | – | – | 120 | 2.34 | 57.9 ± 4.15 | 282 | 117 ± 4.82 | 0.43 | 34.7 | – | – | – | – | – | –
9 | Brc1cccc(CNCCc2c[nH]c3ccccc23)c1 [Compound 11, N-(3-Bromobenzyl)-[2-(1H-indol-3-yl)ethyl]amine] | – | 8.13 | – | 75.9 | – | – | 58.9 | 0.93 | 32.6 ± 1.64 | 55 | 107 ± 2.78 | 1.07 | 21.9 | – | – | – | – | – | –
10 | CCOc1ccc(CNCCc2c[nH]c3ccccc23)cc1 [Compound 15, N-(4-Ethoxybenzyl)-[2-(1H-indol-3-yl)ethyl]amine] | 2.66 | 275 | 0.36 | 741 | – | – | 363 | 0.032 | 36.7 ± 6.13 | 11.7 | 93.2 ± 3.26 | 30.9 | 269 | – | – | – | – | – | –
11 | Clc1ccc(CNCCc2c[nH]c3ccccc23)cc1 [Compound 16, N-(4-Chlorobenzyl)-[2-(1H-indol-3-yl)ethyl]amine] | 1.37 | 708 | 0.73 | 955 | – | – | 58.9 | 0.85 | 80 ± 4.54 | 50.1 | 98.3 ± 4.18 | 1.17 | 224 | – | – | – | – | – | –
12 | Brc1ccc(CNCCc2c[nH]c3ccccc23)cc1 [Compound 17, N-(4-Bromobenzyl)-[2-(1H-indol-3-yl)ethyl]amine] | 1.09 | 1000 | 0.92 | 1070 | – | – | – | – | – | 6760 | 110 ± 4.3 | – | 263 | – | too low for quantification | – | – | – | –
13 | COc1cccc(CNCCc2c[nH]c3ccccc23)c1O [Compound 19, N-(2-Hydroxy-3-methoxybenzyl)-[2-(1H-indol-3-yl)ethyl]amine] | 0.58 | 26.3 | 1.72 | 16.6 | – | – | 49 | 1.91 | 26.2 ± 2.34 | 93.3 | 107 ± 6.91 | 0.52 | 13.2 | – | – | – | – | – | –
14 | Oc1c(Br)cccc1CNCCc1c[nH]c2ccccc12 [Compound 21, N-(3-Bromo-2-hydroxybenzyl)-[2-(1H-indol-3-yl)ethyl]amine] | 9.8 | 14.1 | 0.10 | 138 | – | 15800 | 15800 | 0.0017 | 40.4 ± 6.23 | 27.5 | 98.8 ± 2.83 | 575 | 15.5 | – | extremely weak h5-HT2A partial agonist | 4.80 | 27 | about 3 times | full agonist
15 | Oc1c(F)cccc1CNCCc1c[nH]c2ccccc12 [Compound 22, N-(3-Fluoro-2-hydroxybenzyl)-[2-(1H-indol-3-yl)ethyl]amine] | 0.82 | 209 | 1.22 | 178 | – | – | 162 | 0.105 | 53.6 ± 4.49 | 17 | 104 ± 4.96 | 9.55 | 129 | – | – | – | – | – | –
16 | Cc1ccc(O)c(CNCCc2c[nH]c3ccccc23)c1 [Compound 23, N-(2-Hydroxy-5-methylbenzyl)-[2-(1H-indol-3-yl)ethyl]amine] | 0.36 | 741 | 2.77 | 269 | – | – | 110 | 0.91 | 43.6 ± 0.9 | 100 | 89.4 ± 3.86 | 1.10 | 155 | – | – | – | – | – | –

Reference: PMC6328172, “5-HT2 receptor binding, functional activity and selectivity in N-benzyltryptamines” (PLoS ONE, 2019)
